In data set [1] the test system is MC3T3 E1 mouse osteoblast-like cells (clone 14). The data set is described as follows: Cell mortality and proliferation of MC3T3 E1-14 cells. To be noted: 5-20 μM salubrinal. Type of data set: cell-based. How it is done:
METHOD EXAMPLE. Cell culture. MC3T3 E1 mouse osteoblast-like cells (clone 14—MC3T3 E1-14; and no clonal cells in supplementary figures), and RAW264.7 mouse pre-osteoclast (monocyte/macrophage) cells were cultured in αMEM containing 10% fetal bovine serum and antibiotics (50 units/ml penicillin, and 50 μg/ml streptomycin; Life Technologies, Grand Island, N.Y., USA). Cells were maintained at 37° C. and 5% CO2 in a humidified incubator. Cell mortality and live cell numbers were determined 24 h after the treatment with 20 ng/ml RANKL (PeproTech, Rocky Hills, N.C., USA) in response to 0.1-20 μM salubrinal or 1-20 μM guanabenz acetate (Tocris Bioscience, Ellisville, Mo., USA). Cells were stained with trypan blue and the numbers of live and dead cells were counted using a hemacytometer.
(§1) METHOD EXAMPLE. Enhanced mineralization of MC3T3 E1-14 cells by salubrinal. Prior to examining the effects of salubrinal on osteoclastogenesis, its effects on development of osteoblasts was tested, focusing on cell viability, phosphorylation of eIF2α (p-eIF2α), expression of ATF4 and osteocalcin, and matrix mineralization. […] The enhanced mineralization was also observed in non-clonal MC3T3 E1 cells (Supplementary FIG. S1).

The test system of data set [2] is cleaved caspase 3. The data set is described as follows: Western immunoblotting, cleaved caspase 3 in MC3T3 E1-14 cells. Type of data set: cell-based, mouse. To be noted: 10 μM salubrinal, 24 h. How it is done: METHOD EXAMPLE. Western Immunoblotting. Cells were lysed in a radioimmunoprecipitation assay (RIPA) buffer containing protease inhibitors (Santa Cruz Biotechnology, Santa Cruz, Calif., USA) and phosphatase inhibitors (Calbiochem, Billerica, Mass., USA). Isolated proteins were fractionated using 10-15% SDS gels and electro-transferred to Immobilon-P membranes (Millipore, Billerica, Mass., USA). The membrane was incubated for 1 h with primary antibodies followed by 45 min incubation with goat anti-rabbit or anti-mouse IgG conjugated with horseradish peroxidase (Cell Signaling, Danvers, Mass., USA). We used antibodies against ATF4, NFATcl (Santa Cruz), p-eIF2α (Thermo Scientific, Waltham, Mass., USA), eIF2α, caspase 3, cleaved caspase 3, p38 and p-p38 mitogen activated protein kinase (MAPK), extracellular signal-regulated kinase (ERK) and p-ERK, nuclear factor kappa B (NFκB) p65 and p-NFκB p65 (Cell Signaling), and β-actin (Sigma). Protein levels were assayed using a SuperSignal west femto maximum sensitivity substrate (Thermo Scientific), and signal intensities were quantified with a luminescent image analyzer (LAS-3000, Fuji Film, Tokyo, Japan).
METHOD EXAMPLE. Enhanced mineralization of MC3T3 E1-14 cells by salubrinal. […]
In general terms: Immunoblotting shows a protein as a band on a membrane.

Data set [3] has as its system MC3T3 E1-14 cells. The data set is described as follows: Mineralization assay (Alizarin Red S staining). To be noted: 3-week incubation in an osteogenic medium. Type of data set: cell-based, mouse. How it is done:
METHOD EXAMPLE. Mineralization assay. Mineralization of extracellular matrix was assayed by Alizarin Red S staining. MC3T3-E1 cells were plated in 6-well plates. When cells were confluent, 50 μg/ml of ascorbic acid (Wako Chemicals, Richmond, Va., USA) and 5 mM β-glycerophosphate (Sigma) were added. The medium was changed every other day, and staining was conducted after 3 week. Cells were washed with PBS twice and fixed with 60% isopropanol for 1 min at room temperature, followed by rehydration with distilled water for 3 min at room temperature. They were stained with 1% Alizarin red S (Sigma) for 3 min and washed with distilled water.
as §1

For `O=C(/C=C/c1ccccc1)NC(NC(=S)Nc1cccc2cccnc12)C(Cl)(Cl)Cl` (stereo not shown) [salubrinal], in data set [1], the cell mortality result was “did not increase cell mortality or inhibit cell proliferation” and the cell proliferation entry is “did not increase cell mortality or inhibit cell proliferation”. For the same compound, the “expression level of cleaved caspase 3” value in data set [2] is “did not elevate”. The “mineralization (Alizarin red S staining area)” value in data set [3] is on record as “enhanced mineralization of MC3T3 E1-14 cells in a dose dependent manner”.
